Measured values as given in US20060165683A1, “Methods and compositions for control of bone formation via modulation of sympathetic tone” (priority 2001, published 2006).

Assays:
[1] = test system: human SaOS-2 osteoblastic cells; test: cAMP production in human SaOS-2 osteoblastic cells; assay type: cell-based; conditions: SaOS-2, 100 μM IBMX, 5 min treatment
Protocol: (§1) Primary osteoblast cultures were established as previously described (see, e.g., Ducy et al., 2000, Cell 100: 197-207) and maintained in αMEM/0.1 mg/ml ascorbic acid supplemented with 10% FBS. SaOS-2 were grown in MEM/10% FBS. For cAMP assay confluent cultures were incubated with serum free medium containing 100 μM IBMX (3-isobutyl-1-methylxanthine, Sigma) for 8 minutes before PBS, PTH(1-34) (Bachem), isoproterenol, norepinephrine, phenylephrine (Sigma) or propranolol were added for 5 min. Intracellular cAMP concentration was measured by immunoassay (R&D Systems). For gene expression analyses, primary osteoblasts were treated for 72 hours with appropriate drugs in 0.1% FBS. Hormone serum levels were quantified using immunoassays kits from Peninsula Laboratories (Insulin) or Alpco Diagnostics (leptin). Deoxypyridinoline cross-links and Creatinine were measured in morning urines using the Quidel kits. a1(I) leptin bioactivity was verified by cotransfection of 293 cells expressing ObRb with a STAT3-responsive-luc reporter construct, pSVβgal plasmid and a1(I) leptin expression vector or mock. Twenty-four hours later luciferase and β-galactosidase activities were measured. Data represents ratios of luciferase/β-galactosidase activities, and values are mean of 6 independent transfection experiments.
For a sympathetic regulation of bone formation to exist several requirements have to be fulfilled. The first one is that functional adrenergic receptors are present on osteoblasts. […] No other adrenergic receptor subtype could be detected. […] Thus, to assess the biologic relevance of the presence of β2-adrenergic receptors on osteoblasts, these cells were treated with isoproterenol, a β-adrenergic agonist, alone or in the presence of propranolol, a β-adrenergic receptor antagonist; with norepinephrine, the natural ligand of β-adrenergic receptors; with phenylephrine, an α-adrenergic agonist or with vehicle and measured cAMP production. […]

primary osteoblasts = test: Gene expression and apoptosis in primary osteoblasts; assay type: cell-based, mouse
Protocol: as §1
To elucidate the bases of the antiosteogenic effect of isoproterenol in vivo, osteoblast proliferation, gene expression and apoptosis were studied.

[2] = test system: primary osteoblasts isolated from wild-type mice; test: Leptin signaling in primary osteoblast cultures (Stat3 phosphorylation, immediate early genes, matrix synthesis and mineralization); assay type: cell-based, mouse
Protocol: Expression of leptin in osteoblasts was studied in subconfluent primary osteoblast cultures from wild-type mice which were maintained for 4 days in 10% FBS mineralization medium and then subsequently switched to 0.5% for 2 days and replaced daily. Medium was replaced 2 hours before a 20 min treatment with 80 ng/mL leptin (Sigma) or 40 ng/mL Oncostatin M (R&D Diagnostics) or vehicle. RNA extractions were performed using Triazol (Gibco). Northern blots were performed with 15 μg of total RNA according to methods well known in the art.
To determine whether or not leptin could transduce its signal in osteoblasts, serum-starved primary osteoblasts isolated from wild-type mice were treated with leptin. Primary osteoblast cultures from calvaria of newborn wild-type or db/db mice were established as previously described (Ducy et al., 1999, Genes Dev 13, 1025-1036) and maintained in mineralization medium (αMEMI 0.1 mg/mL ascorbic acid; 5 mM […]) supplemented with 10% […]. Cultures of mutant cells were maintained in this medium for 15 days before analysis. Cultures derived from wild-type mice were maintained for 10 days in this medium then the percentage of serum was reduced to 0.5% and the medium supplemented with 1.2 μg/mL leptin (Sigma) or vehicle for 5 days.
The phosphorylation of Stat3, a downstream effector of leptin signaling in its target cells (Tartaglia et al., 1995, Cell 83, 1263-1271; Baumann et al., 1996, Proc Natl Acad Sci USA 93, 8374-8378; Ghilardi et al., 1996, Proc Natl Acad Sci USA 93, 6231-6235; Vaisse et al., 1996, Nat Genet 14, 95-97), was monitored, in addition to the expression of two immediate early genes whose transcription is increased following leptin treatment of target cells (Elmquist et al., 1997, Endocrinology 138, 839-842). As a positive control oncostatin-M that induces Stat3 phosphorylation and activates the expression of the same two immediate early genes in osteoblasts (Levy et al., 1996, Endocrinology 137, 1159-1165) was utilized. Western blot analysis was performed to determine Stat3 phosphorylation as follows. Cells were lysed, protein extracts were separated on a 7.5% SDS-PAGE and blotted on nitrocellulose (Biorad) for immunoblotting assay by methods well known in the art. Analysis of Stat3 phosphorylation was performed using the PhosphoPlus Stat3 (Tyr7O5) Antibody kit (New England Biolabs) according to the manufacturer's instructions.
Finally, the effect of a long-term leptin treatment of primary osteoblast cultures from wild-type mice on extracellular matrix synthesis and bone matrix mineralization was determined. The presence of a collagen-rich extracellular matrix and of mineralization nodules was assessed by whole-mount staining of the cultures by the van Gieson and von Kossa reagent, respectively. No difference was observed when assessing collagen synthesis or mineralization nodule formation between control and leptin-treated cultures (FIG. 5E).

[3] = primary osteoblasts, 72 hours, 0.1% FBS, Northern blot

Molecule: CC(C)NCC(O)c1ccc(O)c(O)c1 (stereo not shown) [isoproterenol]
- cAMP production [1]: induced
- apoptosis: Caspase 3 expression and Annexin-V staining levels (primary osteoblasts; isoproterenol-treated versus control osteoblasts): did not observe any change
- expression of Cbfa1 (primary osteoblasts; [3]): decreased
- expression of a1(I) collagen (primary osteoblasts; [3]): decreased

B1: leptin: polypeptide hormone, product of the ob gene; human leptin (Sigma) infused ICV (protein)
chain: VPIQKVQDDTKTLIKTIVTRINDISHTQSVSAKQRVTGLDFIPGLHPILSLSKMDQTLAVYQQVLTSLPSQNVLQIANDLENLRDLLHLLAFSKSCSLPQTSGLQKPESLDGVLEASLYSTEVVALSRLQGSLQDILQQLDVSPEC
- collagen synthesis or mineralization nodule formation vs control cultures ([2]; long-term treatment, 1.2 μg/mL leptin for 5 days, 0.5% serum): No difference
- expression of Tis11 and c-fos (Northern analysis) ([2]; primary osteoblasts, 20 min treatment): not
- Stat3 phosphorylation (Western blot) ([2]; serum-starved primary osteoblasts, 20 min, leptin 80 ng/mL, Oncostatin M 40 ng/mL): did not
